Where “and” joins values, the source holds several entries; their conditions need not be identical. Identical values can stand only once.
Key:
hGLUT1 = target: T1, hGLUT1 (Homo sapiens, UniProt P11166); test: 2-DG uptake by HEK293 cells overexpressing hGLUT1; type: cell-based; conditions: for IC50 for inhibition of 2-DG uptake: GLUT1 cell line; for inhibition at 5 µM: 5 μM compound
T1 construct: expressed in transfected cells; host or cells: HEK293 (HEK293-FLIP); native hGLUT1 not knocked down in this line
T1 sequence (P11166 1-492): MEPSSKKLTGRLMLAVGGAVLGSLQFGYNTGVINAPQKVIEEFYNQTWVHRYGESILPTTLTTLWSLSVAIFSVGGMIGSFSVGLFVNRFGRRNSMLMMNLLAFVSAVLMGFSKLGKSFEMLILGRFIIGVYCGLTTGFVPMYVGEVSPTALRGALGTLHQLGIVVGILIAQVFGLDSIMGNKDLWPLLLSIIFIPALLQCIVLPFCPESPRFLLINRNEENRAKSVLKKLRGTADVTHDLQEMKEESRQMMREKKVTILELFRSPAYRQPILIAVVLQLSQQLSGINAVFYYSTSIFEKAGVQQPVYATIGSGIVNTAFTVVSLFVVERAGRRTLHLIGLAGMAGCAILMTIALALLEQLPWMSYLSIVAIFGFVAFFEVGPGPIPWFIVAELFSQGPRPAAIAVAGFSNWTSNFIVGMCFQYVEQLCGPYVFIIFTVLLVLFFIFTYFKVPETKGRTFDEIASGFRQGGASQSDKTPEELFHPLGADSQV
Description: (§1) Generation of HEK293 cells overexpressing PfHT and human GLUTs 1–4 were described elsewhere. Briefly, HEK293 cells were transfected with pcDNA3.1 FLII12Pglu-7006 (Addgene), containing the fluorescence resonance energy transfer (FRET) glucose sensor (HEK293-FLIP) and PfHT, human GLUT1 (hGLUT1), hGLUT2, hGLUT3, hGLUT4, hGLUT5 or hGLUT8 using Optifect (Life Technologies) according to manufacturer’s specifications. To increase retention of GLUT8 at the plasma membrane, the dileucine sorting signal E^7E^8XXXLL was modified to R^7R^8XXXLL as described in [17]. Stable transfectants were selected for G418 and hygromycin resistance to select for FRET sensor and hexose transporter, respectively. HEK293-FLIP cells were also used to generate cells stably transfected with FLAG-tagged PfHT (FTPfHT). FLAG tag ([…]) followed by a triple glycine linker and a tobacco etch virus (TEV) protease site (ENLYFQS) followed by a triple glycine linker was added to the N-terminus of PfHT via PCR [18] using Phusion Hot Start II High-Fidelity DNA Polymerase (Fisher Scientific). Single clones were selected by comparing their abilities to transport glucose as assayed via FRET and radiolabeled hexose uptake. In all cell lines, except for HEK293 cells overexpressing hGLUT1 and hGLUT5, native hGLUT1 was knocked down using shRNA as described elsewhere. Transcript levels of the individual GLUTs expressed in each cell line are as described in [13, 15] and in S1 Fig.
(§2) Glucose uptake by P. falciparum was performed essentially as described. P. falciparum strain 3D7 was cultured in 100 mm tissue culture dishes (Techno Plastic Products) in a 2% suspension of human erythrocytes and RPMI 1640 medium until reaching > 7.5% parasitemia. Cells were pelleted via centrifugation and resuspended in RPMI 1640 medium. To determine the uptake of radiolabeled glucose into the parasite, parasites were isolated from infected erythrocytes by permeablization with saponin (0.05 w/v), followed by centrifugation, aspiration of supernatant and washing of the pellet 3X with saline solution (135 mM NaCl, 2 mM KCl, 25 mM HEPES, 0.2 mM glucose and 1 mM MgCl2; pH 7.1) to remove cellular debris. WU-1 or DMSO vehicle were added to 100 μl parasites (resuspended in saline) 5 min prior to the addition of 100 μl [^14C]2-DOG (0.2- μCi/ml final concentration). 2-DG uptake was stopped after 2 min by layering the entire reaction over 300 μl of an oil mixture (5:4 mix of dibutyl phthalate / dinonyl phthalate) in Eppendorf tubes and centrifuged at 15,850 × g for 2 mins. The ratio of the estimated intracellular concentration of radiolabel relative to the extracellular concentration were calculated as described. Uptake of radiolabeled hexose into HEK293 cells was measured in glucose-free HBSS as described previously. Briefly, cells were plated at 400,000 cells/well overnight at 37°C in 24-well plates pre-treated with PEI. After 30-min incubation at 37°C in glucose-free HBSS in the presence of vehicle or increasing concentrations of compound, 2-DG uptake was measured in glucose-free HBSS for 4 min at 37°C. Cultures were washed in ice-cold 1X PBS and lysed in 0.1% Triton X-100 in 1X PBS. Radiolabeled hexose uptake was determined by liquid scintillation counting (Ultima Gold, Thermo Fisher) and normalized to total protein per well. Uptake data are plotted as percent uptake relative to vehicle-treated cells. Kinetic analyses were performed using the indicated concentrations of substrate and WU-1, with quenching of uptake after 1 min incubation. Incubation times had been previously determined as being in the linear range of time-dependent radiolabeled hexose uptake (2 min for 2-DG uptake into freed parasites; 2 and 4 min for D-Frc and 2-DG uptake HEK cell lines, respectively). Data were fit by least squares nonlinear regression analysis using GraphPad Prism 6.0 software.

hGLUT3 = target: T2, hGLUT3 (Homo sapiens, UniProt P11169); test: 2-DG uptake by HEK293 cells overexpressing hGLUT3; type: cell-based; conditions: for remaining activity at 0.001 µM: 0.001 µM compound; for remaining activity at 5 µM / inhibition at 5 µM: 5 μM compound; for remaining activity at 40 µM: 40 µM compound; for remaining activity at 80 µM: 80 µM compound; for remaining activity at 160 µM: 160 µM compound; for remaining activity at 225 µM: 225 µM compound; for IC50: IC50 for inhibition of 2-DG uptake
T2 construct: expressed in transfected cells; host or cells: HEK293 (HEK293-FLIP, native hGLUT1 knocked down by shRNA)
T2 sequence (P11169 1-496): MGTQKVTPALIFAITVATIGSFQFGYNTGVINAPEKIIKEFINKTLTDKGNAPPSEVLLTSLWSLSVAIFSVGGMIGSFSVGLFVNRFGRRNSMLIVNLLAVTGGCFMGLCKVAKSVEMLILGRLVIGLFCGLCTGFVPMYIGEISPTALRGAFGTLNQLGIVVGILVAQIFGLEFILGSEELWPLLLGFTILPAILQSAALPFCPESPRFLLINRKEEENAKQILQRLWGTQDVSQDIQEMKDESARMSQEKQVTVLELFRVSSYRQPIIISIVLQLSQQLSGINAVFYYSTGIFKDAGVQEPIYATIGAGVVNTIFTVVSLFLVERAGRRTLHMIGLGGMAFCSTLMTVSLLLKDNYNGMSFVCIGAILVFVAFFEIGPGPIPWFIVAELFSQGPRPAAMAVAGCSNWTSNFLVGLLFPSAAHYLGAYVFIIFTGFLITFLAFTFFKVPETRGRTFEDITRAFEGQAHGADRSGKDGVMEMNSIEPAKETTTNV
Description: as §1, §2

[1] = HEK293, 4 min, GLUT1, read-out: % Inhibition of 2-DG uptake vs vehicle
[2] = HEK293, 4 min, GLUT3, read-out: 2-DG uptake (percent uptake relative to vehicle), AVE per experiment
[3] = HEK293, 4 min, GLUT3, 2.5 µM compound, read-out: 2-DG uptake (percent uptake relative to vehicle), AVE per experiment
[4] = HEK293, 4 min, GLUT3, read-out: % Inhibition of 2-DG uptake vs vehicle
[5] = HEK293, 4 min, GLUT3, 10 µM compound, read-out: 2-DG uptake (percent uptake relative to vehicle), AVE per experiment
[6] = GLUT3 cell line, mean/reported value
[7] = individual experiments, GLUT3, Expt 1-3

| Structure (SMILES) | 2-DG uptake (percent uptake relative to vehicle) (hGLUT1; GLUT1, 0.001 µM compound) | 2-DG uptake (percent uptake relative to vehicle) (hGLUT1; GLUT1, 1.25 µM compound) | 2-DG uptake (percent uptake relative to vehicle) (hGLUT1; GLUT1, 2.5 µM compound) | 2-DG uptake (percent uptake relative to vehicle) (hGLUT1; GLUT1, 5 µM compound) | 2-DG uptake (percent uptake relative to vehicle) (hGLUT1; GLUT1, 10 µM compound) | 2-DG uptake (percent uptake relative to vehicle) (hGLUT1; GLUT1, 20 µM compound) | 2-DG uptake (percent uptake relative to vehicle) (hGLUT1; GLUT1, 40 µM compound) | 2-DG uptake (percent uptake relative to vehicle) (hGLUT1; GLUT1, 80 µM compound) | 2-DG uptake (percent uptake relative to vehicle) (hGLUT1; GLUT1, 160 µM compound) | 2-DG uptake (percent uptake relative to vehicle) (hGLUT1; GLUT1, 225 µM compound) | IC50 for inhibition of 2-DG uptake (hGLUT1) | inhibition at 5 µM (hGLUT1; [1]) [%] | remaining activity at 0.001 µM (hGLUT3; [2]) [%] | remaining activity at 2.5 µM (hGLUT3; [3]) [%] | remaining activity at 5 µM (hGLUT3; [2]) [%] | inhibition at 5 µM (hGLUT3; [4]) [%] | remaining activity at 10 µM (hGLUT3; [5]) [%] | remaining activity at 40 µM (hGLUT3; [2]) [%] | remaining activity at 80 µM (hGLUT3; [2]) [%] | remaining activity at 160 µM (hGLUT3; [2]) [%] | other results |
| --- | --- | --- | --- | --- | --- | --- | --- | --- | --- | --- | --- | --- | --- | --- | --- | --- | --- | --- | --- | --- | --- |
| COc1c(Br)cc([N+](=O)[O-])c(OC)c1C(=O)NC(=O)Nc1c(C)cccc1Cl [WU-2, 3-(3-bromo-2,6-dimethoxy-5-nitrobenzoyl)-1-(2-chloro-6-methylphenyl)urea] | 100 | 114.79 | 107.57 | 107.75 | 114.4 | 108.02 | 132.21 | 130.08 | 118.85 | 129.55 | n.i. | -7.75 | 100 | 92.9 | 92.4 | 10 to 12 | 95.1 | 91.7 | 81.9 | 68.7 | remaining activity at 225 µM (hGLUT3; [2]): 77.5%; IC50 (hGLUT3; [6]): > 50 µM; IC50 (hGLUT3; [7]): 103 µM and 61.6 µM and 11.4 µM |
| COc1cc(/C=C2\COC/C(=C\c3cc(OC)c(OC)c(OC)c3)C2=O)cc(OC)c1OC [WU-5, (3E,5E)-3,5-bis[(3,4,5-trimethoxyphenyl)methylidene]oxan-4-one] | – | – | – | – | – | – | – | – | – | – | – | – | – | – | – | – | – | – | – | – | inhibition at 2.5 µM (hGLUT1; HEK293, 4 min, GLUT1, 2.5 μM compound, read-out: % Inhibition of 2-DG uptake vs vehicle): 2.94%; inhibition at 2.5 µM (hGLUT3; HEK293, 4 min, GLUT3, 2.5 µM compound, read-out: % Inhibition of 2-DG uptake vs vehicle): ~20% |
| COc1cc(/C=N/NC(=O)c2cc(-c3ccccc3)sc2N)cc(OC)c1OC [WU-3, 2-amino-5-phenyl-N'-[(E)-(3,4,5-trimethoxyphenyl)methylidene]thiophene-3-carbohydrazide] | – | – | – | – | – | – | – | – | – | – | – | – | – | – | – | – | – | – | – | – | inhibition at 10 µM (hGLUT1; HEK293, 4 min, GLUT1, 10 μM compound, read-out: % Inhibition of 2-DG uptake vs vehicle): ≥ 50%; inhibition at 10 µM (hGLUT3; HEK293, 4 min, GLUT3, 10 µM compound, read-out: % Inhibition of 2-DG uptake vs vehicle): ≥ 50% |
| Cc1ccc(S(=O)(=O)CCNC(=O)c2c(-c3c(Cl)cccc3Cl)noc2C)cc1 [WU-1, 3-(2,6-dichlorophenyl)-5-methyl-N-[2-(4-methylbenzenesulfonyl)ethyl]-1,2-oxazole-4-carboxamide] | 100 | 99.74 | 109.88 | 102.1 | 100.82 | 110.03 | 120.62 | 121.35 | 125.18 | 132.09 | n.i. | -2.1 | 100 | 103 | 99.5 | 0.48 | 103 | 82.5 | 76.4 | 80 | IC50 for inhibition of 2-DG uptake, individual experiments (hGLUT3; GLUT3, Expt 1-3): ambiguous; remaining activity at 1.25 µM (hGLUT3; HEK293, 4 min, GLUT3, 1.25 µM compound, read-out: 2-DG uptake (percent uptake relative to vehicle), AVE per experiment): 110%; remaining activity at 20 µM (hGLUT3; HEK293, 4 min, GLUT3, 20 µM compound, read-out: 2-DG uptake (percent uptake relative to vehicle), AVE per experiment): 102%; remaining activity at 225 µM (hGLUT3; [2]): 75.3%; IC50 (hGLUT3; [6]): > 100 µM; IC50 (hGLUT3; [7]): > 225 µM |

From publication PMC6508677, “Identification of druggable small molecule antagonists of the Plasmodium falciparum hexose transporter PfHT and assessment of ligand access to the glucose permeation pathway via FLAG-mediated protein engineering” (PLoS ONE, 2019)
